Here are results for two compounds from US9029325B2, “Amylin analogues and pharmaceutical compositions thereof” (Novo Nordisk A/S, priority 2011, dated 2015).

The nature of this experiment: Assay (I) efficacy testing on appetite (food intake), ad libitum fed rat model. It is filed as in vivo, Sprague Dawley (SD) rats. Particulars: 3 nmol/kg. From the text:
Sprague Dawley (SD) rats from Taconic Europe, Denmark are used for the experiments. The rats have a body weight 200-250 g at the start of experiment. The rats arrive at least 10-14 days before start of experiment to allow acclimatization to experimental settings. During this period the animals are handled at least 2 times. After arrival rats are housed individually for one week in a reversed light/dark phase (meaning that lights are off during daytime and on during nighttime) […]. Since rats are normally active and eat their major part of their daily food intake during the dark period, rats are dosed in the morning right before lights are turned off. This set-up results in the lowest data variation and highst test sensitivity. The experiment is conducted in the rats' home cages and rats have free access to food and water througout the acclimatization period and the experiment period. Each dose of derivative is tested in a group of 5-8 rats. A vehicle group of 6-8 rats is included in each set of testing. Rats are dosed once according to body weight with a 0.01-3 mg/kg solution administered intraperitoneally (ip), orally (po) or subcutaneously (sc). The time of dosing is recorded for each group. After dosing, the rats are returned to their home cages, where they then have access to food and water. The food consumption is recorded individually continuously by on-line registration or manually every hour for 7 hours, and then after 24 h and sometimes 48 h. At the end of the experimental session, the animals are euthanised.
The individual data are recorded in Microsoft excel sheets. Outliers are excluded after applying the Grubbs statistical evaluation test for outliers, and the result is presented graphically using the GraphPad Prism program.

Starred links: 1 amine or outer side, 2 acyl side, 3 side chain; linkers in the order of their positions; H or OH if unused. Positions of bridges follow the written chain, without caps; N, C: chain ends. Residues, ends and D or L forms follow the SMILES beside them. *: point of attachment. C20 diacid = O=C(O)CCCCCCCCCCCCCCCCCCC(=O)*; γGlu = O=C(O)[C@H](CCC(=O)[*:2])N[*:1]

Take `CC[C@H](C)[C@H](NC(=O)[C@@H]1CCCN1C(=O)CNC(=O)[C@H](Cc1ccccc1)NC(=O)[C@H](CO)NC(=O)[C@H](CO)NC(=O)[C@H](CO)NC(=O)[C@H](CO)NC(=O)[C@H](CCCNC(=N)N)NC(=O)[C@H](Cc1c[nH]cn1)NC(=O)[C@H](CC(C)C)NC(=O)[C@H](Cc1ccccc1)NC(=O)[C@H](CCC(=O)O)NC(=O)[C@H](C)NC(=O)[C@H](CC(C)C)NC(=O)[C@H](CCCNC(=N)N)NC(=O)[C@H](CCC(N)=O)NC(=O)[C@@H](NC(=O)[C@H](C)NC(=O)[C@@H]1CSSC[C@H](NC(=O)[C@H](Cc2c[nH]cn2)NC(=O)CC[C@H](NC(=O)CCCCCCCCCCCCCCCCCCC(=O)O)C(=O)O)C(=O)N[C@@H](CC(N)=O)C(=O)N[C@@H]([C@@H](C)O)C(=O)N[C@@H](C)C(=O)N[C@@H]([C@@H](C)O)C(=O)N1)[C@@H](C)O)C(=O)N[C@@H](CC(C)C)C(=O)N1CCC[C@H]1C(=O)N1CCC[C@H]1C(=O)N[C@H](C(=O)N[C@@H](CC(=O)O)C(=O)N[C@H](C(=O)NCC(=O)N[C@@H](CO)C(=O)N[C@@H](CC(=O)O)C(=O)N[C@H](C(=O)N[C@@H](Cc1ccc(O)cc1)C(N)=O)[C@@H](C)O)C(C)C)[C@@H](C)O` [compound 9] ({C20 diacid-γGlu}-HCNTATCATQRLAEFLHRSSSSFGPILPPTDVGSDTY-NH2; disulfide 2-7 (inferred); C-terminus assumed): the “Food intake reduction 0-24 h 3 nmol/kg (%)” value is reported as 39% and the “Food intake reduction 24-48 h 3 nmol/kg (%)” value turned out to be 32%.

For the compound `CC[C@H](C)[C@H](NC(=O)[C@@H]1CCCN1C(=O)CNC(=O)[C@H](Cc1ccccc1)NC(=O)[C@H](CC(N)=O)NC(=O)[C@H](CC(N)=O)NC(=O)[C@H](CO)NC(=O)[C@H](CO)NC(=O)[C@H](CCCNC(=N)N)NC(=O)[C@H](Cc1c[nH]cn1)NC(=O)[C@H](CC(C)C)NC(=O)[C@H](Cc1ccccc1)NC(=O)[C@H](CCC(=O)O)NC(=O)[C@H](C)NC(=O)[C@H](CC(C)C)NC(=O)[C@H](CCCNC(=N)N)NC(=O)[C@H](CCC(N)=O)NC(=O)[C@@H](NC(=O)[C@H](C)NC(=O)[C@@H]1CSSC[C@H](NC(=O)[C@H](CCC(=O)O)NC(=O)CC[C@H](NC(=O)CCCCCCCCCCCCCCCCCCC(=O)O)C(=O)O)C(=O)N[C@@H](CC(N)=O)C(=O)N[C@@H]([C@@H](C)O)C(=O)N[C@@H](C)C(=O)N[C@@H]([C@@H](C)O)C(=O)N1)[C@@H](C)O)C(=O)N[C@@H](CC(C)C)C(=O)N1CCC[C@H]1C(=O)N1CCC[C@H]1C(=O)N[C@H](C(=O)N[C@@H](CC(N)=O)C(=O)N[C@H](C(=O)NCC(=O)N[C@@H](CO)C(=O)N[C@@H](CC(N)=O)C(=O)N[C@H](C(=O)N1CCC[C@H]1C(N)=O)[C@@H](C)O)C(C)C)[C@@H](C)O` [Example 10, N-alpha-[(S)-4-Carboxy-4-(19-carboxynonadecanoylamino)butyryl]-[Glu1, Glu14, His17, Arg18, Pro37]-pramlintide] ({C20 diacid-γGlu}-ECNTATCATQRLAEFLHRSSNNFGPILPPTNVGSNTP-NH2; disulfide 2-7), the “Food intake reduction 0-24 h 3 nmol/kg (%)” value amounted to 50% and the “Food intake reduction 24-48 h 3 nmol/kg (%)” value is 40%.
